Data from patent US5430169A, “Method for preparation of sphingoid bases” (The United States of America represented by the Department …, priority 1994, dated 1995).
“Also recorded” adds a separate entry of the source.

How the values were obtained:
S-1-P aldolase [1] = settings: mode of inhibition, in words; cited from earlier work
permeabilized cells = settings: cellular level / environments with other cellular components, e.g.; cited from earlier work
rat liver aldolase = target: T1, rat liver aldolase (Rattus norvegicus, UniProt Q8CHN6); experiment: in vitro biological evaluation: inhibition of rat liver aldolase; type: biochemical; settings: read-out: IC50, inhibited rat liver aldolase
T1 construct: from tissue; host or cells: rat liver
T1 sequence (Q8CHN6 1-568): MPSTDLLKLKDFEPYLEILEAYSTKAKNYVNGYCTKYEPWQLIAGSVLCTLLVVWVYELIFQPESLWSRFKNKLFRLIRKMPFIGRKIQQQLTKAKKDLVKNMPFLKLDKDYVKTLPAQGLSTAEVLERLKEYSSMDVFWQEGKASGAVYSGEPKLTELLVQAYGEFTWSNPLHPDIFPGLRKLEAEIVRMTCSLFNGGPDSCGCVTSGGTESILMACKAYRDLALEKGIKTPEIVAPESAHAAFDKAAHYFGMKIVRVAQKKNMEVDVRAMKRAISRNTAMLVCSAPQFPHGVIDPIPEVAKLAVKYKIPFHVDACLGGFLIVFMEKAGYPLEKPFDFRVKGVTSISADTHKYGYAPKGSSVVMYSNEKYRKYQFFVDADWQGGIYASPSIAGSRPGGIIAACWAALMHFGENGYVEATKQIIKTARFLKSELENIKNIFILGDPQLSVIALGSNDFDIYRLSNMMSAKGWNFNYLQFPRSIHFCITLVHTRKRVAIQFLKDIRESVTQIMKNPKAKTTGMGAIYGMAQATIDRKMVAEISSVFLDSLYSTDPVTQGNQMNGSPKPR

S-1-P aldolase [2] = experiment: time dependent (irreversible) inhibition of S-1-P aldolase; type: biochemical; settings: mode of inhibition, in words
[3] = tested on: permeabilized smooth muscle cells; settings: IP3-sensitive and IP3-insensitive pools; cited from earlier work
Swiss 3T3 fibroblasts = settings: in words; cited from earlier work
protein kinase C = settings: in words; cited from earlier work

IC50 (rat liver aldolase) [nM]	time dependent (irreversible) inhibitor of S-1-P aldolase (S-1-P aldolase [2])	Compound	also measured
–	–	CCCCCCCCCCCCCCCC(O)C(N)CP(=O)(O)O (stereo not shown) [DS-1-P, dihydrosphingosine-1-phosphonate]	inhibition of the S-1-P aldolase reaction (S-1-P aldolase [1]): competitive inhibition; toxicity (permeabilized cells): highly toxic; also recorded: well known toxin
800	–	CCCCCCCCCCCCCCCC(O)C(COP(=O)(O)O)NN (stereo not shown) [Example 3, 2-hydrazino deamino dihydrosphingosine-1-phosphate]	–
2400	time dependent (irreversible) inhibitor	C=CC(N)(COP(=O)(O)O)C(O)CCCCCCCCCCCCCCC (stereo not shown) [Example 4, 2-vinyl dihydrosphingosine-1-phosphate]	–
1100	time dependent (irreversible) inhibitor	C=CC(N)COP(=O)(O)O (stereo not shown) [Example 5, 2-vinyl ethanolamine-O-phosphate]	–
–	–	CCCCCCCCCCCCC/C=C/[C@@H](O)[C@@H](N)COP(=O)(O)O [Example S-1-P, sphingosine-1-phosphate]	translocation of calcium from intracellular stores [3]: rapid translocation of calcium from intracellular stores; mitogenic effect in Swiss 3T3 fibroblasts (Swiss 3T3 fibroblasts): very potent mitogen
–	–	CCCCCCCCCCCCC/C=C/[C@@H](O)[C@@H](N)CO [sphingosine]	inhibition of protein kinase C (protein kinase C): potent and specific inhibitor
